In the NIST ThermoML archive (doi:10.1021/acs.jced.5b00820):

Test: refractive index (Na D-line) (dimensionless); xn = mol fraction of the nth substance listed
Conditions: 102.2 kPa, Liquid, Standard Abbe refractometry

C[Si](C)(O[Si](C)(C)c1ccccc1)c1ccccc1 [1,3-diphenyltetramethyldisiloxane] + C=C[Si]1(C)O[Si](C)(C=C)O[Si](C)(C=C)O[Si](C)(C=C)O1
refractive index
Conditions | 308.15 K | 313.15 K | 318.15 K | 323.15 K | 328.15 K
x1 = 0.0511 | 1.43117 | 1.4288 | 1.42643 | 1.42402 | 1.42168
x1 = 0.1004 | 1.43477 | 1.43241 | 1.43005 | 1.42765 | 1.42534
x1 = 0.1503 | 1.43849 | 1.4361 | 1.43374 | 1.43138 | 1.42904
x1 = 0.2 | 1.44222 | 1.43984 | 1.4375 | 1.43511 | 1.43277
x1 = 0.2537 | 1.4463 | 1.44393 | 1.44162 | 1.43922 | 1.43688
x1 = 0.3001 | 1.4499 | 1.44754 | 1.44521 | 1.44282 | 1.44051
x1 = 0.3507 | 1.45386 | 1.4515 | 1.44918 | 1.44682 | 1.44446
x1 = 0.4002 | 1.4578 | 1.45544 | 1.45312 | 1.45075 | 1.4484
x1 = 0.4503 | 1.46186 | 1.45951 | 1.45719 | 1.45481 | 1.45253
x1 = 0.4999 | 1.4659 | 1.46356 | 1.46122 | 1.45885 | 1.45654
x1 = 0.5501 | 1.47011 | 1.46778 | 1.46545 | 1.46309 | 1.46081
x1 = 0.597 | 1.47406 | 1.47174 | 1.46939 | 1.46705 | 1.46474
x1 = 0.6498 | 1.47861 | 1.47627 | 1.47398 | 1.47166 | 1.46934
x1 = 0.7005 | 1.48302 | 1.48067 | 1.47836 | 1.47601 | 1.47373
x1 = 0.7492 | 1.48734 | 1.48502 | 1.48271 | 1.48037 | 1.47809
x1 = 0.8001 | 1.49193 | 1.48963 | 1.4873 | 1.48499 | 1.48269
x1 = 0.8497 | 1.49647 | 1.49417 | 1.49187 | 1.4896 | 1.48727
x1 = 0.8999 | 1.50106 | 1.49877 | 1.49645 | 1.49415 | 1.4918
x1 = 0.9502 | 1.50586 | 1.50356 | 1.50122 | 1.49894 | 1.49665
x1 = 1 | 1.51066 | 1.50836 | 1.5061 | 1.50381 | 1.5015
